Test results published in patent US20260232703A1, “USE OF A SYK INHIBITOR FOR THE TREATMENT OF CHEMICAL OR RADIATION INDUCED LUNG INJURY” (Rigel Pharmaceuticals, Inc., priority 2023, published 2026).
Values after ≈ are worked out from the molar mass of the structure shown.

Columns and labels:
[1] = Water solubility in aqueous buffer under physiological conditions; assay type: physicochemical
[2] = tested on: WAG/RijCmcr rats, leg-out PBI irradiated; assay: Leg-out PBI rat model of radiation-induced lung injury (RILI), lung histology; assay type: in vivo; settings: 13.5 Gy (female) or 13 Gy (male) leg-out PBI rats; fostamatinib 10 or 20 mg/kg; H&E lung sections, 5-point scale; versus untreated irradiated rats
Text: Irradiation. Leg-out PBI rat models: WAG/RijCmcr female and male rats are unilaterally irradiated, dorsal to ventral, without the use of anesthetics at 11-12 weeks of age. Irradiations are done between 8-10 am. For leg-out PBI, non-anesthetized rats are immobilized in a plastic jig and irradiated using a […] orthovoltage x-ray system (Precision X-Ray, North Branford, Connecticut). […] Doses can range from 13-14.5 Gy for female rats and 12.5-14.5 Gy for males. During irradiation, each rat is confined to a chamber which allows irradiation of 2 rats simultaneously. One hind limb of each rat is carefully externalized from the chamber and shielded with a 0.25-inch lead block. […] Whole mount lung sections (4 μm thick) are stained with hematoxylin and eosin (H&E) and also stained with tryptase antibody (IMGENEX catalogue #IMG-80250, 1:150) (Gao et al. Radiat Res 179: 465-74; 2013. [PubMed: 23480564]) and five randomly selected fields (20×) of each lung are evaluated. The foamy macrophages, vascular, and alveolar wall thickness are scored as described previously (Medhora et al. Radiat Res 182: 545-55; 2014. [PubMed: 25361399]; Medhora et al. J Radiat Res 56: 248-60; 2015. [PubMed: 25368342]); injury is measured on a 5-point scale and a mean composite lung injury score is calculated. Mast cells are assessed by positive tryptase staining in five randomly selected fields (20×) of each lung. […]

SMILES	solubility [1]	solubility of phosphate prodrug relative to active drug (Compound 1) ([1]; Compound 4 vs Compound 1)	mean composite lung injury score [2]
COc1cc(Nc2ncc(F)c(Nc3ccc4c(n3)NC(=O)C(C)(C)O4)n2)cc(OC)c1OC [Compound 1, N4-(2,2-Dimethyl-3-oxo-4H-5-pyrid[1,4]oxazin-6-yl)-5-fluoro-N2-(3,4,5-trimethoxyphenyl)-2,4-pyrimidinediamine]	1 to 2 µg/mL (≈ 2.13 to 4.25 µM)	–	–
COc1cc(Nc2ncc(F)c(Nc3ccc4c(n3)N(COP(=O)(O)O)C(=O)C(C)(C)O4)n2)cc(OC)c1OC [Compound 4]	> 5000 µg/mL	approximately 2000 times greater	lower
